“Also recorded” adds a separate entry of the source.
Assays:
[1] = system: brain-derived neurotrophic factor (BDNF); assay: Clinical trial in RRMS patients: BDNF concentration in serum by sandwich ELISA; format: in vivo, human; details: for Mean BDNF concentration in serum: RRMS patients
Method: A study was initiated in relapsing remitting multiple sclerosis (RRMS) patients using laquinimod, 0.6 mg daily, in the form of the sodium salt, in an oral, once-daily tablet formulation. The study was a multinational, multicenter, randomized, double-blind, parallel-group, placebo controlled study assessing the efficacy, tolerability and safety of two doses of laquinimod in subjects with RRMS. Eligible subjects were randomized into the following three groups:
1. 0.6 mg of laquinimod per os (p.o.) once daily;
2. 0.3 mg of laquinimod per os (p.o.) once daily; and
3. Matching placebo, per os (p.o.) once daily. Subjects must meet the following inclusion criteria to be included in the study:
• 1. a confirmed MS diagnosis as defined by the McDonald criteria; • 2. a RRMS disease course; • 3. at least one documented relapse n the 12 months prior to screening; • 4. at least one Gadolinium-enhanced lesion on their screening MRI scan; • 5. ambulatory with a Kurtzke EDSS score of 1.0-5.0 (Converted); • 6. between 18-50 years of age inclusive; • 7. relapse-free and off corticosteroids or ACTH for at least 30 days prior to the MRI scan at screening; • 8. relapse-free and off corticosteroids between screening and randomization; • 9. women of child-bearing potential practiced a reliable method of birth control; • 10. willing and able to comply with the protocol requirements for the duration of the study; and • 11. able to give signed, written and informed consent prior to entering the study. Subjects meeting any one of the following exclusion criteria were excluded from the study: • 1. suffered from any form of progressive MS; • 2. use of immunosuppressive or cytotoxic treatments within 6 months prior to the screening visit (including azathioprine, cyclophosphamide and methotrexate); • 3. use of experimental drugs, and/or participation in drug clinical studies within the 6 months prior to screening; • 4. previous treatment with immunomodulators (including IFN-β1a and 1b, glatiramer acetate, laquinimod and IVIG) within the 2 months prior to screening; • 5. use of potent inhibitors of CYP3A4, for example, oral ketoconazole and erythromycin within 2 weeks prior to baseline visit; • 6. previous use of amiodarone; • 7. use of fluoxetine one month prior to baseline visit; • 8. use of substrates of CYP1A2 such as theophylline and warfarin within 2 weeks prior to screening; • 9. previous treatment with cladribine within the last 2 years prior to screening visit; • 10. subjects for whom potential immunosuppression would be contraindicated, for example, Hepatitis B/C or HIV. • 11. previous total body irradiation or total lymphoid irradiation; • 12. chronic corticosteroid treatment (30 or more consecutive days) within the 2 months prior to screening; • 13. pregnancy or breastfeeding; • 14. subjects with a clinically significant or unstable medical or surgical condition that would preclude safe and complete study participation as determined by medical history, physical exams, ECG, abnormal laboratory tests and chest X-ray. • 15. inability to give informed consent, or to complete the study, or if the subject is considered by the investigator to be, for any reason, an unsuitable candidate for the study; • 16. a known history of sensitivity to Gd; or • 17. inability to successfully undergo MRI scanning.
The study duration was 40 weeks and consisted of 2 periods: 4 weeks of screening period (week −4 [ screening] to week 0 [ baseline]) and 36 weeks of double blind treatment (week 0 [ baseline] to week 36 [ termination]).
Subjects were evaluated at study sites at weeks −4, 0, 4, 8, 12, 16, 20, 24, 28, 32 and 36. Samples for inflammatory markers were collected at all visits between 0 and 36 weeks.
BDNF concentration in serum was measured in patients in the placebo group (102 patients were in the group) and in the 0.6 mg laquinimod group (106 patients were in the group) at week 0 (V0), week 12 (v3) and week 36 (V9). […]

Balb/c mice [2] = assay: Forced Swim Test (FST); format: in vivo
Balb/c mice [3] = assay: Open Field Test (motility and anxiety parameters); format: in vivo
Method: The Open Field Test—Exploratory locomotor activity used in Examples 3.1 and 3.2 described below is one of the most popular in evaluation of animals' behavior. It tests both motility parameters and anxiety (Prut et al). An individual mouse is placed in a novel plexiglass arena of 50×50 cm the floor of which is divided into 3 digital zones: the outer peripheral zone 1, the medial zone 2 and the most central zone 3. The animal behavior in the open field is recorded by videotaping for 20 min and is analyzed subsequently digitally using Noldus software for animal behavior. The measurements include general motility (distance moved, velocity and strong mobility) and anxiety parameters (including frequency of visits to the central area, time spent in the inner field, and number of rearing events in the center). The more the animal stays and performs in the center, the less anxious it is.
(§1) Balb/c male mice were divided to 6 groups (5/group) and administered laquinimod (1, 5, 10 and 25 mg/kg p.o. in the form of laquinimod sodium solution via gavage), fluoxetine (positive control 10 mg/kg po) or vehicle daily for 3 days. On the third day, 90 min following administration, mice were exposed to the open field for 20 min. Behavior was video recorded and analyzed using Ethovision software (Noldus Holland).
as §1, with “(0.5, 1, 5” for “(1, 5, 10”, “field test” for “field”, “minutes.” for “min.”

Balb/c mice [4] = assay: Elevated Plus Maze (EPM); format: in vivo
Text: The EPM model used in Examples 4.1 and 4.2 described below utilizes the natural fear of rodents to avoid open and elevated places. The apparatus consists of a plus-maze with two enclosed and two opposite open arms, elevated above the floor. […] This is one of the most widely used models to study effects of anxiety-like behavior. The maze consisted of two opposing open arms (40×10 cm) and two opposing closed arms (40×10 cm, with 40 cm walls) on a platform 50 cm above the ground. Mice were placed in the center square (10×10 cm) facing an open arm and videotaped during a 5 min exploration. Arm entries and duration were scored when all four paws enter the arm. Balb/c male mice were divided to 6 groups (5/group) and administered laquinimod (0.5, 1, 5 and 25 mg/kg p.o. in the form of laquinimod sodium solution via gavage), fluoxetine (positive control 10 mg/kg po) or vehicle daily for 3 days. On the third day, 90 min following administration, mice were exposed to the EPM for 5 minutes. Mice were placed in the center square (10×10 cm) facing an open arm and videotaped during a 5 minute exploration. Arm entries and duration was scored when all four paws enter the arm. Behavior was video recorded and analyzed using Ethovision software (Noldus Holland). Balb/c male mice were divided to 6 groups (5/group) and administered laquinimod (0.5, 1, 5 and 25 mg/kg p.o. in the form of laquinimod sodium solution via gavage), fluoxetine (positive control 10 mg/kg po) or vehicle daily for 3 days. On the third day, 90 min following administration, mice were exposed to the EPM for 5 min. Behavior was video recorded and open arms parameters were analyzed using Ethovision software (Noldus Holland).

CCN(C(=O)c1c(O)c2c(Cl)cccc2n(C)c1=O)c1ccccc1 [Laquinimod, N-ethyl-N-phenyl-1,2-dihydro-4-hydroxy-5-chloro-1-methyl-2-oxoquinoline-3-carboxamide]
Difference in BDNF versus placebo group ([1]; 0.6 mg/day, V9 (week 36)): statistically significant | Elevation of BDNF versus placebo group ([1]; 0.6 mg/day, starting from V3 (week 12), Confidence Level of 95%): statistically significant elevation of BDNF | Mean BDNF concentration in serum ([1]; 0.6 mg laquinimod p.o. once daily group, baseline week 0 (V0)): 13892.7 pg/mL | Mean BDNF concentration in serum ([1]; 0.6 mg laquinimod p.o. once daily, week 12 (V3)): 15519.6 pg/mL | Mean BDNF concentration in serum ([1]; 0.6 mg laquinimod p.o. once daily, week 36 (V9)): 15335.8 pg/mL | Difference in mean BDNF, Laquinimod 0.6 mg-Placebo (t Test, unequal variances) ([1]; baseline week 0 (V0)): -218.0 pg/mL | Difference in mean BDNF, Laquinimod 0.6 mg-Placebo (t Test, unequal variances) ([1]; week 12 (V3)): 2445.70 pg/mL | Difference in mean BDNF, Laquinimod 0.6 mg-Placebo (t Test, unequal variances) ([1]; week 36 (V9)): 2552.21 pg/mL | Antidepressant activity (increased mobility, reduced immobility) in FST (Balb/c mice [2]; Example 2.1, 1 mg/kg p.o. daily for 3 days, 90 min after last dose): significant antidepressant activity | Most active dose in FST (Balb/c mice [2]; Example 2.1, doses tested 1-25 mg/kg/d x3d p.o.): 1 mg/kg | Antidepressant activity (increased mobility, reduced immobility) in FST (Balb/c mice [2]; Example 2.1, higher doses (25 mg/kg) p.o. daily for 3 days): trend to significance | Antidepressant activity (increased mobility, reduced immobility) in FST (Balb/c mice [2]; Example 2.2, 5 and 25 mg/kg p.o. daily for 3 days): significant antidepressant activity | Most potent dose, anxiety parameters (zones 2 and 3) in open field (Balb/c mice [3]; Example 3.1): 1 mg/kg | Motility parameters in open field (Balb/c mice [3]; Example 3.1, 1-25 mg/kg/d x3d p.o., 20 min): did not modify significantly the motility parameters; also recorded: did not modify general mobility parameters | Anxiety parameters (zone 2) in open field (Balb/c mice [3]; Example 3.1, 1-25 mg/kg/d x3d p.o., frequency, time spent, distance moved, rearings): tendency toward anxiolytic effect | Anxiety parameters (zone 2) in open field (Balb/c mice [3]; Example 3.1, 1-25 mg/kg/d x3d p.o., frequency, time spent, distance moved, rearings, listed as laquinimod): tended to perform more in the center | Anxiety parameters (zones 2 and 3) in open field (Balb/c mice [3]; Example 3.1, 1-25 mg/kg/d x3d p.o., time spent, distance moved, rearings): tendency toward anxiolytic effect | Anxiety parameters (zones 2 and 3) in open field (Balb/c mice [3]; Example 3.1, 1-25 mg/kg/d x3d p.o., time spent, distance moved, rearings, listed as laquinimod): tended to perform more in the center | Most potent dose, anxiety parameters in open field (Balb/c mice [3]; Example 3.2): 5 mg/kg | Motility parameters in open field (Balb/c mice [3]; Example 3.2, 0.5-5 mg/kg (0.5-25 mg/kg/d x3d p.o. tested)): slight increase in motility | Anxiety parameters (zones 2+3) in open field (Balb/c mice [3]; Example 3.2, 0.5-5 mg/kg p.o. daily for 3 days, frequency, time spent, rearings): performed significantly more in the center; also recorded: significant anxiolytic effect | Anxiolytic activity in EPM (Balb/c mice [4]; Example 4.1, 0.5, 1, 5 and 25 mg/kg p.o. daily for 3 days): anxiolytic activity in a dose dependent manner | Anxiolytic effect in EPM (activity on the open arm) (Balb/c mice [4]; Example 4.1, 5 and 25 mg/kg/d x3d p.o., 5 min): significant anxiolytic effect | Dose of maximal effect in EPM (Balb/c mice [4]; Example 4.1, p.o.): 25 mg/kg | Anxiolytic activity in EPM (Balb/c mice [4]; Example 4.2, 0.5, 1, 5 and 25 mg/kg p.o. daily for 3 days): anxiolytic activity in a dose dependent manner | Anxiolytic effect in EPM (open arm parameters) (Balb/c mice [4]; Example 4.2, 5-25 mg/kg/d x3d p.o., 5 min): significant anxiolytic effect | Dose of maximal effect in EPM (Balb/c mice [4]; Example 4.2, p.o.): 5 to 25 mg/kg

CNCCC(Oc1ccc(C(F)(F)F)cc1)c1ccccc1 (stereo not drawn) [fluoxetine, reference compound]
Antidepressant activity in FST (Balb/c mice [2]; Example 2.1, positive control 10 mg/kg p.o. daily for 3 days): did not show significant effect | Antidepressant activity in FST (Balb/c mice [2]; Example 2.2, positive control 10 mg/kg p.o. daily for 3 days): trend to the same activity | Anxiety parameters (zone 2) in open field (Balb/c mice [3]; Example 3.1, 10 mg/kg p.o. daily for 3 days): tended to perform more in the center | Motility parameters in open field (Balb/c mice [3]; Example 3.1, 10 mg/kg p.o. daily for 3 days, 20 min): did not modify significantly the motility parameters | Anxiety parameters (zones 2+3) in open field (Balb/c mice [3]; Example 3.2, 10 mg/kg p.o. daily for 3 days): significant anxiolytic effect | Anxiety parameters (zones 2+3) in open field (Balb/c mice [3]; Example 3.2, 10 mg/kg p.o. daily for 3 days, listed as Fluoxetine): performed significantly more in the center

From patent US9585878B2, “Treatment of BDNF-related disorders using laquinimod” (TEVA PHARMACEUTICAL INDUSTRIES, LTD., priority 2009, dated 2017)
